The record followed here is article PMC6988422 (Molecular Plant Pathology, 2019).

As usually defined, the Kd is the free concentration of one partner at which half of the binding sites on the other are occupied at equilibrium, for simple one-to-one binding. Low values mean tighter binding, high ones weaker binding.

In this assay the target is T1, CdgL (c-di-GMP receptor interacting with LysR; YajQ homologue, Le2538) (Lysobacter enzymogenes, UniProt A0A0S2DCE3).
T1 sequence (A0A0S2DCE3 1-160): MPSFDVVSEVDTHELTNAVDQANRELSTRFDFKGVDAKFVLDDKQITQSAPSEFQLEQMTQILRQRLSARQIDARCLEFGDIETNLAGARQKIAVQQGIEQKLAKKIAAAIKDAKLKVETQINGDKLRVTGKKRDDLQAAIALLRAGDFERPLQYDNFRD
In words: microscale thermophoresis. The format is binding. (In MST a laser heats a spot of the sample, and binding alters the fluorescence response.)

For the molecule `Nc1nc2c(ncn2[C@@H]2O[C@@H]3CO[P@](=O)(O)O[C@H]4[C@@H](O)[C@H](n5cnc6c(=O)[nH]c(N)nc65)O[C@@H]4CO[P@](=O)(O)O[C@H]3[C@H]2O)c(=O)[nH]1` [c-di-GMP], binding was put at a Kd of 14.6 µM.
